*1 amine or outer side, *2 acyl side, *3 side chain or, on linkers, in order; H or OH if unused. Where a SMILES comes first, the peptide text is derived from it. Side-chain parts run from the residue outwards. The star is where a group is joined. C16 diacid = O=C(O)CCCCCCCCCCCCCCC(=O)*; γGlu = O=C(O)[C@H](CCC(=O)[*:2])N[*:1]; AEEA = NCCOCCOCC(=O)O
Columns and labels:
Assay type in all cases: cell-based
human GIP receptor [1] = target: T1, human GIP receptor (Homo sapiens, UniProt P48546); experiment: cAMP agonism (CisBio cAMP Dynamic 2 HTRF assay); conditions: HEK293, read-out: cAMP agonism, % Efficacy, Table 1C, HEK-293 cells
T1 sequence (P48546 22-466): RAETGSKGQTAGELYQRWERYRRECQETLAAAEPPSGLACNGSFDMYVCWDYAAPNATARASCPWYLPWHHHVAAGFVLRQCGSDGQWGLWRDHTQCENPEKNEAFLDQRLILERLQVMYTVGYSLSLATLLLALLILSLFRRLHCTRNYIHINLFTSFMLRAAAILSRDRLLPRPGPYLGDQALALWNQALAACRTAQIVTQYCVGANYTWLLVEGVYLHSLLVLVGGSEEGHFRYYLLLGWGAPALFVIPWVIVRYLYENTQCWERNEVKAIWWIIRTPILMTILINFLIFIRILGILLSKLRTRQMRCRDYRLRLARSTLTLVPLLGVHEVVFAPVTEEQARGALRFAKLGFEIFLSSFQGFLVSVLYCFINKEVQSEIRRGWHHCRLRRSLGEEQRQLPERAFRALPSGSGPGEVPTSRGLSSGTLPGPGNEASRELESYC
Protocol: To test for agonistic properties at the GIP receptor, compounds were diluted and added to cells as described above and incubated for 30 min at 37° C. The resulting increase in intracellular cAMP was determined using the CisBio cAMP Dynamic 2 HTRF Assay Kit as described above.

human GIP receptor [2] = target: T1, human GIP receptor; experiment: cAMP antagonism (CisBio cAMP Dynamic 2 HTRF assay); parameters: pCMV-Script vector; conditions: Table 1C, CisBio, HEK-293 cells; for IC50: cAMP antagonism, nM (IC50), agonist GIP1-42 at EC50
Outline: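 Four-parameter fits of cAMP dose-response gave pIC50. cAMP fall was quantified by HTRF competition, ratio 665/620 nm after 60 min at room temperature, against a cAMP standard curve.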

human GIP receptor [3] = target: T1, human GIP receptor; experiment: cAMP accumulation, antagonism (DiscoveRx HitHunter cAMP XS assay); parameters: host or cells: COS-7 (transient, calcium phosphate; pCMV-Script vector)
Protocol: Transient transfected COS-7 cells expressing the human GIP receptor were seeded in white 96-well plates with a density of 3.5*10^4/well. The day after, the cells were washed twice with Hepes buffered saline (HBS) buffer and incubated with HBS and 1 mM 3-isobutyl-1-methylxanthine (IBMX) for 30 min at 37° C. To test for agonistic properties, ligands were added and incubated for 30 min at 37° C. In order to test for antagonistic properties, the cells were preincubated with the antagonists for 10 min prior to the addition of the agonist and subsequent incubated for 20 additional min. The HitHunter™ cAMP XS assay (DiscoveRx) was carried out according to the manufacturer's instructions.
In order to develop a GIP receptor antagonist with improved antagonistic properties, individual amino acid substitutions were conducted on GIP(3-30)NH2 and in particular at positions: 16, 18, 30 or 3, 16, 18, 30. The obtained peptides were lipidated at position 18 directly or via a linker. Both the agonistic and antagonistic profiles of the compounds were tested in cAMP accumulation experiments done in transiently transfected COS-7 cells expressing the human GIP receptor. To investigate if these mutated analogues still retained their antagonistic properties, their ability to inhibit a GIP-mediated cAMP response corresponding to 50-80% of maximum activation was examined.

human GIP receptor [4] = target: T1, human GIP receptor; experiment: cAMP accumulation, agonism (DiscoveRx HitHunter cAMP XS assay); parameters: host or cells: COS-7 (transient, calcium phosphate; pCMV-Script vector); conditions: for Emax: COS-7, read-out: cAMP agonism, Emax
Outline: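 cAMP accumulation measured by HitHunter cAMP XS in COS-7 cells transiently expressing human GIP receptor, after 30 min in HBS with 1 mM IBMX at 37 °C. Antagonists preincubated 10 min before GIP giving 50-80% of maximum, then 20 min more; agonist mode used 30 min ligand exposure.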

[5] = cAMP antagonism, nM (IC50), Table 1B, DiscoveRx, transiently transfected COS-7 cells

SMILES	Emax (human GIP receptor [1]) [%]	cAMP antagonism, % inhib (human GIP receptor [2]) [%]	IC50 (human GIP receptor [2]) [nM]	IC50 (human GIP receptor [3]; [5]) [nM]	Emax (human GIP receptor [4]) [%]	IC50 (human GIP receptor [3]; IC50-value (GIPR antagonism), Examples 1 and 2, values of Tables 1B and 2) [nM]	cAMP antagonism, % inhib (human GIP receptor [3]; Table 1B, DiscoveRx, COS-7 cells, % inhibition of Emax) [%]	cAMP agonism, Emax (human GIP receptor [4]; Table 1B, DiscoveRx, COS-7 cells)
CC[C@H](C)[C@H](NC(=O)[C@H](CO)NC(=O)[C@H](Cc1ccc(O)cc1)NC(=O)[C@H](CC(=O)O)NC(=O)[C@H](CO)NC(=O)[C@@H](NC(=O)[C@H](Cc1ccccc1)NC(=O)[C@@H](NC(=O)CNC(=O)[C@@H](N)CO)[C@@H](C)O)[C@@H](C)CC)C(=O)N[C@@H](C)C(=O)N[C@@H](CCSC)C(=O)N[C@@H](CC(=O)O)C(=O)N[C@@H](CCCNC(=N)N)C(=O)N[C@H](C(=O)N[C@@H](CCCCNC(=O)CCCCCCCCCCCCCCC(=O)O)C(=O)N[C@@H](CCC(N)=O)C(=O)N[C@@H](CCC(N)=O)C(=O)N[C@@H](CC(=O)O)C(=O)N[C@@H](Cc1ccccc1)C(=O)N[C@H](C(=O)N[C@@H](CC(N)=O)C(=O)N[C@@H](Cc1c[nH]c2ccccc12)C(=O)N[C@@H](CC(C)C)C(=O)N[C@@H](CC(C)C)C(=O)N[C@@H](C)C(=O)N[C@@H](CCC(N)=O)C(=O)N[C@@H](CCCNC(=N)N)C(=O)O)C(C)C)[C@@H](C)CC [AT259] (H-SGTFISDYSIAMDRIK(C16 diacid)QQDFVNWLLAQR-OH; N-terminus assumed)	9	72	58.4	19	20	–	–	–
CC[C@H](C)[C@H](NC(=O)[C@H](CO)NC(=O)[C@H](Cc1ccc(O)cc1)NC(=O)[C@H](CC(=O)O)NC(=O)[C@H](CO)NC(=O)[C@@H](NC(=O)[C@H](Cc1ccccc1)NC(=O)[C@@H](NC(=O)CNC(=O)CN)[C@@H](C)O)[C@@H](C)CC)C(=O)N[C@@H](C)C(=O)N[C@@H](CCSC)C(=O)N[C@@H](CC(=O)O)C(=O)N[C@@H](CCCNC(=N)N)C(=O)N[C@H](C(=O)N[C@@H](CCCCNC(=O)COCCOCCNC(=O)CC[C@H](NC(=O)CCCCCCCCCCCCCCC(=O)O)C(=O)O)C(=O)N[C@@H](CCC(N)=O)C(=O)N[C@@H](CCC(N)=O)C(=O)N[C@@H](CC(=O)O)C(=O)N[C@@H](Cc1ccccc1)C(=O)N[C@H](C(=O)N[C@@H](CC(N)=O)C(=O)N[C@@H](Cc1c[nH]c2ccccc12)C(=O)N[C@@H](CC(C)C)C(=O)N[C@@H](CC(C)C)C(=O)N[C@@H](C)C(=O)N[C@@H](CCC(N)=O)C(=O)N[C@@H](CCCNC(=N)N)C(=O)O)C(C)C)[C@@H](C)CC [AT269] (HELM PEPTIDE1{G.G.T.F.I.S.D.Y.S.I.A.M.D.R.I.K.Q.Q.D.F.V.N.W.L.L.A.Q.R}|PEPTIDE2{[O=C(O)CCCCCCCCCCCCCCC(=O)[*:2]].[gGlu].[O=C(COCCOCCN[*:1])[*:2]]}$PEPTIDE1,PEPTIDE2,16:R3-3:R2$$$V2.0; N-terminus assumed)	0	–	–	91	12	–	–	–
CC[C@H](C)[C@H](NC(=O)[C@H](CO)NC(=O)[C@H](Cc1ccc(O)cc1)NC(=O)[C@H](CC(=O)O)NC(=O)[C@H](CO)NC(=O)[C@@H](NC(=O)[C@H](Cc1ccccc1)NC(=O)[C@@H](NC(=O)CNC(=O)CN)[C@@H](C)O)[C@@H](C)CC)C(=O)N[C@@H](C)C(=O)N[C@@H](CCSC)C(=O)N[C@@H](CC(=O)O)C(=O)N[C@@H](CCCNC(=N)N)C(=O)N[C@H](C(=O)N[C@@H](CCCCNC(=O)COCCOCCNC(=O)COCCOCCNC(=O)CC[C@H](NC(=O)CCCCCCCCCCCCCCC(=O)O)C(=O)O)C(=O)N[C@@H](CCC(N)=O)C(=O)N[C@@H](CCC(N)=O)C(=O)N[C@@H](CC(=O)O)C(=O)N[C@@H](Cc1ccccc1)C(=O)N[C@H](C(=O)N[C@@H](CC(N)=O)C(=O)N[C@@H](Cc1c[nH]c2ccccc12)C(=O)N[C@@H](CC(C)C)C(=O)N[C@@H](CC(C)C)C(=O)N[C@@H](C)C(=O)N[C@@H](CCC(N)=O)C(=O)N[C@@H](CCCNC(=N)N)C(=O)O)C(C)C)[C@@H](C)CC [AT275] (H-GGTFISDYSIAMDRIK([AEEA-AEEA-γGlu-C16 diacid])QQDFVNWLLAQR-OH; N-terminus assumed)	5	66	126	43	5	–	–	–
CC[C@H](C)[C@H](NC(=O)[C@H](CO)NC(=O)[C@H](Cc1ccc(O)cc1)NC(=O)[C@H](CC(=O)O)NC(=O)[C@H](CO)NC(=O)[C@@H](NC(=O)[C@H](Cc1ccccc1)NC(=O)[C@@H](NC(=O)CNC(=O)[C@@H]1CCCN1)[C@@H](C)O)[C@@H](C)CC)C(=O)N[C@@H](C)C(=O)N[C@@H](CCSC)C(=O)N[C@@H](CC(=O)O)C(=O)N[C@@H](CCCNC(=N)N)C(=O)N[C@H](C(=O)N[C@@H](CCCCNC(=O)COCCOCCNC(=O)COCCOCCNC(=O)CC[C@H](NC(=O)CCCCCCCCCCCCCCC(=O)O)C(=O)O)C(=O)N[C@@H](CCC(N)=O)C(=O)N[C@@H](CCC(N)=O)C(=O)N[C@@H](CC(=O)O)C(=O)N[C@@H](Cc1ccccc1)C(=O)N[C@H](C(=O)N[C@@H](CC(N)=O)C(=O)N[C@@H](Cc1c[nH]c2ccccc12)C(=O)N[C@@H](CC(C)C)C(=O)N[C@@H](CC(C)C)C(=O)N[C@@H](C)C(=O)N[C@@H](CCC(N)=O)C(=O)N[C@@H](CCCNC(=N)N)C(=O)O)C(C)C)[C@@H](C)CC [AT279] (H-PGTFISDYSIAMDRIK([AEEA-AEEA-γGlu-C16 diacid])QQDFVNWLLAQR-OH; N-terminus assumed)	14	81	–	19	17	–	–	–
CC[C@H](C)[C@H](NC(=O)[C@H](CO)NC(=O)[C@H](Cc1ccc(O)cc1)NC(=O)[C@H](CC(=O)O)NC(=O)[C@H](CO)NC(=O)[C@@H](NC(=O)[C@H](Cc1ccccc1)NC(=O)[C@@H](NC(=O)CNC(=O)[C@@H](N)CCC(=O)O)[C@@H](C)O)[C@@H](C)CC)C(=O)N[C@@H](C)C(=O)N[C@@H](CCSC)C(=O)N[C@@H](CC(=O)O)C(=O)N[C@@H](CCCNC(=N)N)C(=O)N[C@H](C(=O)N[C@@H](CCCCNC(=O)COCCOCCNC(=O)CC[C@H](NC(=O)CCCCCCCCCCCCCCC(=O)O)C(=O)O)C(=O)N[C@@H](CCC(N)=O)C(=O)N[C@@H](CCC(N)=O)C(=O)N[C@@H](CC(=O)O)C(=O)N[C@@H](Cc1ccccc1)C(=O)N[C@H](C(=O)N[C@@H](CC(N)=O)C(=O)N[C@@H](Cc1c[nH]c2ccccc12)C(=O)N[C@@H](CC(C)C)C(=O)N[C@@H](CC(C)C)C(=O)N[C@@H](C)C(=O)N[C@@H](CCC(N)=O)C(=O)N[C@@H](CCCNC(=N)N)C(N)=O)C(C)C)[C@@H](C)CC [AT373] (HELM PEPTIDE1{E.G.T.F.I.S.D.Y.S.I.A.M.D.R.I.K.Q.Q.D.F.V.N.W.L.L.A.Q.R.[am]}|PEPTIDE2{[O=C(O)CCCCCCCCCCCCCCC(=O)[*:2]].[gGlu].[O=C(COCCOCCN[*:1])[*:2]]}$PEPTIDE1,PEPTIDE2,16:R3-3:R2$$$V2.0; N-terminus assumed)	0	91	12.6	–	–	10	94	No Agonism
